Laboratory results as given in patent US6861390B2, “Derivatives of UK-2A” (priority 2001, dated 2005).

Legend:
[1] = tested on: Rhizoctonia solani (RHIZSO); test: microbe, parasite or virus in culture; format: cell-based; conditions: read-out: T10 RHIZSO in vitro Growth Inhibition
[2] = tested on: Leptosphaeria nodorum (LEPTNO); test: Glume Blotch of Wheat, whole plant 24 Hour Protectant (T2); conditions: Parastagonospora nodorum; wheat (cultivar Yuma), sprayed at 100 ppm, inoculated after 24 hours; read-out: T2 LEPTNO in vivo 1 Day Protectant, control of fungal infection
[3] = tested on: Magnaporthe grisea (Pyricularia oryzae, PYRIOR); test: microbe, parasite or virus in culture; format: cell-based; conditions: read-out: T9 PYRIOR in vitro Growth Inhibition
[4] = tested on: Stagonospora nodorum (Leptosphaeria nodorum, LEPTNO); test: microbe, parasite or virus in culture; format: cell-based; conditions: Parastagonospora nodorum, read-out: T7 LEPTNO in vitro Growth Inhibition
[5] = tested on: Puccinia recondita (PUCCRT); test: Brown Rust of Wheat, whole plant 24 Hour Protectant (T5); conditions: wheat (cultivar Yuma), sprayed at 100 ppm, inoculated after 24 hours, read-out: T5 PUCCRT in vivo 1 Day Protectant, control of fungal infection
[6] = tested on: Ustilago maydis (USTIMA); test: microbe, parasite or virus in culture; format: cell-based; conditions: Mycosarcoma maydis, read-out: T12 USTIMA in vitro Growth Inhibition
[7] = tested on: Erysiphe graminis (ERYSGT); test: Powdery Mildew of Wheat, whole plant 24 Hour Protectant (T1); conditions: Blumeria graminis, in Triticum aestivum, read-out: T1 ERYSGT in vivo 1 Day Protectant, control of fungal infection
Description: Compound formulation was accomplished by dissolving technical materials in acetone, with serial dilutions then made in acetone to obtain desired concentrations. Final treatment volumes were obtained by adding 9 volumes 0.01% Triton X-100.
Powdery Mildew of Wheat (Erysiphe graminis—ERYSGT) (24 Hour Protectant): Wheat (cultivar Monon) was grown in a soilless peat-based potting mixture (“Metromix”) and mineral soil (50/50 mix) until the seedlings were 10-20 cm tall. These plants were then sprayed to run-off with the test compound at a rate of 100 ppm. After 24 hours the test plants were inoculated by dusting with conidia from powdery mildew infected wheat plants. The plants were then transferred to the greenhouse until disease developed on the untreated control plants.

[8] = tested on: Phytophthora infestans (PHYTIN); test: whole plant or invertebrate; conditions: in Solanum lycopersicum, 24 h, read-out: T3 PHYTIN in vivo 1 Day Protectant, control of fungal infection
[9] = tested on: Mycosphaerella graminicola (Septoria tritici, SEPTTR); test: microbe, parasite or virus in culture; format: cell-based; conditions: Zymoseptoria tritici, read-out: T11 SEPTTR in vitro Growth Inhibition
[10] = tested on: Phytophthora infestans (PHYTIN); test: microbe, parasite or virus in culture; format: cell-based; conditions: in Secale cereale, read-out: T8 PHYTIN in vitro Growth Inhibition
[11] = tested on: Septoria tritici (SEPTTR); test: Leaf Blotch of Wheat, whole plant 24 Hour Protectant (T6); conditions: Zymoseptoria tritici; wheat (cultivar Monon), sprayed at 100 ppm, inoculated after 24 hours; read-out: T6 SEPTTR in vivo 1 Day Protectant, control of fungal infection

Compound | inhibition at 25 ppm [1] | pest or weed control at 100 ppm [2] | inhibition at 25 ppm [3] | inhibition at 25 ppm [4] | pest or weed control at 100 ppm [5] | inhibition at 25 ppm [6] | pest or weed control at 100 ppm [7] | pest or weed control at 100 ppm [8] | inhibition at 25 ppm [9] | inhibition at 25 ppm [10] | melting point | pest or weed control at 100 ppm [11]
COCOc1c(OC)ccnc1C(=O)N[C@H]1COC(=O)[C@H](Cc2ccccc2)[C@@H](OC(=O)C(C)C)[C@H](C)OC1=O [Compound 4] | < 80% | 75 to 100% | > 80% | > 80% | 75 to 100% | < 80% | 25 to 74% | < 25% | < 80% | < 80% | 146 to 147 °C | 
COc1ccnc(C(=O)N[C@H]2COC(=O)[C@H](Cc3ccccc3)[C@@H](OC(=O)C(C)C)[C@H](C)OC2=O)c1OCOCc1ccccc1 [Compound 10] | < 80% | 75 to 100% | < 80% | > 80% | 75 to 100% | < 80% | < 25% | < 25% | > 80% | > 80% | 56 to 60 °C | 
COc1ccnc(C(=O)N[C@H]2COC(=O)[C@H](Cc3ccccc3)[C@@H](OC(=O)C(C)C)[C@H](C)OC2=O)c1OCSc1ccccc1 [Compound 19] | > 80% | 75 to 100% | > 80% | > 80% | 75 to 100% | < 80% | < 25% | < 25% | > 80% | < 80% | 133 to 135 °C | 
CCCO[C@H]1[C@H](C)OC(=O)[C@@H](NC(=O)c2nccc(OC)c2OCOC(C)=O)COC(=O)[C@@H]1Cc1ccccc1 [Compound 51] | > 80% | 75 to 100% | > 80% | > 80% | 75 to 100% | < 80% | 75 to 100% | < 25% | > 80% | < 80% | 65 to 120 °C | 
COCCC(=O)OCOc1c(OC)ccnc1C(=O)N[C@H]1COC(=O)[C@H](Cc2ccccc2)[C@@H](OCC(C)C)[C@H](C)OC1=O [Compound 54] | < 80% | 75 to 100% | > 80% | > 80% | 75 to 100% | > 80% | 75 to 100% | < 25% | > 80% | < 80% |  | 75 to 100%
COc1ccnc(C(=O)N[C@H]2COC(=O)[C@H](Cc3ccccc3)[C@@H](OC(=O)C(C)C)[C@H](C)OC2=O)c1OCOC(=O)COc1ccccc1 [Compound 42] | < 80% | 75 to 100% | > 80% | > 80% | 75 to 100% | < 80% | < 25% | < 25% | > 80% | < 80% |  | < 25%
COCCOC(=O)OCOc1c(OC)ccnc1C(=O)N[C@H]1COC(=O)[C@H](Cc2ccccc2)[C@@H](OC(=O)C(C)C)[C@H](C)OC1=O [Compound 48] | < 80% | 75 to 100% | < 80% | > 80% | 75 to 100% | > 80% | 75 to 100% | < 25% | < 80% | < 80% |  | 75 to 100%
COc1ccnc(C(=O)N[C@H]2COC(=O)[C@H](Cc3ccccc3)[C@@H](OCC(C)C)[C@H](C)OC2=O)c1OCOC(=O)C1CCCC1 [Compound 61] | < 80% | 75 to 100% | > 80% | > 80% | 75 to 100% | > 80% | 75 to 100% | < 25% | > 80% | < 80% |  | 75 to 100%
CCOCC(=O)OCOc1c(OC)ccnc1C(=O)N[C@H]1COC(=O)[C@H](Cc2ccccc2)[C@@H](OCSC)[C@H](C)OC1=O [Compound 72] | < 80% | 75 to 100% | > 80% | > 80% | 75 to 100% | > 80% | 25 to 74% | < 25% | > 80% | < 80% |  | 25 to 74%
COc1ccnc(C(=O)N[C@H]2COC(=O)[C@H](Cc3ccccc3)[C@@H](OC(=O)C(C)C)[C@H](C)OC2=O)c1OCOC(=O)COCC(C)C [Compound 38] | < 80% | 75 to 100% | > 80% | > 80% | 75 to 100% | < 80% | 25 to 74% | < 25% | > 80% | < 80% |  | 75 to 100%
COc1ccnc(C(=O)N[C@H]2COC(=O)[C@H](Cc3ccccc3)[C@@H](OC(=O)C(C)C)[C@H](C)OC2=O)c1OCOC(=O)COC1CCCC1 [Compound 41] | < 80% | 75 to 100% | > 80% | > 80% | 75 to 100% | > 80% | 25 to 74% | < 25% | > 80% | < 80% |  | 75 to 100%
CCC(C)OCC(=O)OCOc1c(OC)ccnc1C(=O)N[C@H]1COC(=O)[C@H](Cc2ccccc2)[C@@H](OC(=O)C(C)C)[C@H](C)OC1=O (some centres unmarked) [Compound 39] | < 80% | 75 to 100% | > 80% | > 80% | 75 to 100% | < 80% | 25 to 74% | < 25% | > 80% | < 80% |  | 75 to 100%
COc1ccnc(C(=O)N[C@H]2COC(=O)[C@H](Cc3ccccc3)[C@@H](OC(=O)C(C)C)[C@H](C)OC2=O)c1OC1OC(=O)c2ccccc21 (some centres unmarked) [Compound 43] | < 80% | 75 to 100% | < 80% | > 80% | 75 to 100% | < 80% | 25 to 74% | < 25% | > 80% | < 80% |  | 75 to 100%
COc1ccnc(C(=O)N[C@H]2COC(=O)[C@H](Cc3ccccc3)[C@@H](OC(=O)C(C)C)[C@H](C)OC2=O)c1OCOC(=O)COC(C)C [Compound 36] | < 80% | 75 to 100% | > 80% | > 80% | 75 to 100% | < 80% | < 25% | < 25% | > 80% | < 80% |  | 75 to 100%
CCCCOCC(=O)OCOc1c(OC)ccnc1C(=O)N[C@H]1COC(=O)[C@H](Cc2ccccc2)[C@@H](OC(=O)C(C)C)[C@H](C)OC1=O [Compound 37] | < 80% | 75 to 100% | > 80% | > 80% | 75 to 100% | > 80% | 25 to 74% | < 25% | > 80% | < 80% |  | 75 to 100%
COCC(=O)OCOc1c(OC)ccnc1C(=O)N[C@H]1COC(=O)[C@H](Cc2ccccc2)[C@@H](OC(=O)C(C)C)[C@H](C)OC1=O [Compound 30] | > 80% | 75 to 100% | > 80% | > 80% | 75 to 100% | > 80% | 75 to 100% | < 25% | < 80% | < 80% |  | 75 to 100%
